Values of other authors, collected in patent US20240229143A1, “FORMULATION OF PEPTIDE IMMUNOTHERAPIES” (priority 2020, published 2024).

Assays:
[1] = single amino acid
[2] = single amino acid; remark: listed apart in the source
[3] = single amino acid; octanol:water

| Compound | pl [1] | Log D7.4 [2] | Log P [3] |
| --- | --- | --- | --- |
| C[C@H](N)C(=O)O [Alanine (Ala)] | 6.00 | −0.27 | −2.89 |
| N=C(N)NCCC[C@H](N)C(=O)O [Arginine (Arg)] | 10.76 | −1.65 |  |
| NC(=O)C[C@H](N)C(=O)O [Asparagine (Asn)] | 5.41 | −0.98 | −3.41 |
| N[C@@H](CC(=O)O)C(=O)O [Asparic Acid (Asp)] | 2.77 | −2.06 | −3.38 |
| N[C@@H](CS)C(=O)O [Cysteine (Cys)] | 5.07 |  |  |
| N[C@@H](CCC(=O)O)C(=O)O [Glutamic Acid (Glu)] | 3.22 | −2.19 | −2.94 |
| NC(=O)CC[C@H](N)C(=O)O [Glutamine (Gln)] |  |  | −3.24 |
| NCC(=O)O [Glycine (Gly)] | 5.97 | −0.22 | −3.25 |
| N[C@@H](Cc1c[nH]cn1)C(=O)O [Histidine (His)] | 7.59 | −0.44 | −3.56 |
| CC[C@H](C)[C@H](N)C(=O)O [Isoleucine (Ile)] | 6.20 | 0.69 | −1.72 |
| CC(C)C[C@H](N)C(=O)O [Leucine (Leu)] |  |  | −1.61 |
| NCCCC[C@H](N)C(=O)O [Lysine (Lys)] | 9.74 | −2.27 | −4.44 |
| CSCC[C@H](N)C(=O)O [Methionine (Met)] | 5.74 | 0.51 | −1.84 |
| N[C@@H](Cc1ccccc1)C(=O)O [Phenylalanine (Phe)] | 5.48 | 1.16 | −1.63 |
| O=C(O)[C@@H]1CCCN1 [Proline (Pro)] | 6.30 | 0.15 | −2.50 |
| N[C@@H](CO)C(=O)O [Serine (Ser)] | 5.68 |  |  |
| C[C@@H](O)[C@H](N)C(=O)O [Threonine (Thr)] | 5.60 | −0.26 | −2.92 |
| N[C@@H](Cc1c[nH]c2ccccc12)C(=O)O [Tryptophan (Trp)] | 5.89 | 1.46 | −1.75 |
| N[C@@H](Cc1ccc(O)cc1)C(=O)O [Tyrosine (Tyr)] | 5.66 |  |  |
| CC(C)[C@H](N)C(=O)O [Valine (Val)] | 5.96 | 0.32 | −2.08 |
